# Laboratory results published in patent publication US11104690B2, “Indazole derivatives useful as inhibitors of diacylglyceride O-acyltransferase 2” (Merck Sharp & Dohme Corp., priority 2016, dated 2021).
# Target: Human DGAT2 (Homo sapiens (Human), UniProt Q96PD7)
# Assay: DGAT2 Enzymatic Activity Assay (triolein formation, LC/MS/MS)
# Format: biochemical
# Settings: hDGAT2 Sf-9 membrane prep; 25 μM diolein, 10 μM oleoyl-CoA; room temperature
# Procedure, shortened: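 Triolein product, measured by LC/MS/MS as a ratio to internal standard, gave % inhibition and 4-parameter IC50. Reaction: 25 μM diolein, 10 μM oleoyl-CoA, 10 ng/μL hDGAT2 Sf-9 membrane, 100 mM Tris.Cl pH 7.0, 20 mM MgCl2, 5% ethanol, room temperature.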
# Human DGAT2, sequence (Q96PD7 whole entry): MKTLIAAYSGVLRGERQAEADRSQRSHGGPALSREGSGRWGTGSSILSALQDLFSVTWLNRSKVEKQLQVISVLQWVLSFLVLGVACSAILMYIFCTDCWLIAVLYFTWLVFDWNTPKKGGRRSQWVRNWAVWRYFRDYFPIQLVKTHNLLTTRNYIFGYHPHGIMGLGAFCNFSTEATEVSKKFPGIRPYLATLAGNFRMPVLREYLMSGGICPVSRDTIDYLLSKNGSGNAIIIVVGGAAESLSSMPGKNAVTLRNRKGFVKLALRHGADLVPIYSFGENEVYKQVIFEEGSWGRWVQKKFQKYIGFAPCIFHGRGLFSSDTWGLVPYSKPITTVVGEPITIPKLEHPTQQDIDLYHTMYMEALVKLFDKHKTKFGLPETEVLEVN
row,Compound,IC50 [nM]
1,"Cn1cc(C(C)(C)NC(=O)c2ccc3c(-c4ccccc4Cl)nn(-c4ccc(F)cc4)c3c2)cn1 [Example 16, 3-(2-chlorophenyl)-1-(4-fluorophenyl)-N-[1-methyl-1-(1-methyl-1H-pyrazol-4-yl)ethyl]-1H-indazole-6-carboxamide]",120
2,"O=C(NCc1ccc(C(F)(F)F)nc1)c1ccc2c(-c3ccccc3Cl)nn(-c3ccc(F)cc3)c2c1 [Example 18, 3-(2-chlorophenyl)-1-(4-fluorophenyl)-N-{[6-(trifluoromethyl)pyridin-3-yl]methyl}-1H-indazole-6-carboxamide]",64
3,"CC(C)(C)OC(=O)CCNC(=O)c1ccc2c(-c3ccccc3Cl)nn(-c3ccc(F)cc3)c2c1 [Example 19, tert-butyl N-{[3-(2-chlorophenyl)-1-(4-fluorophenyl)-1H-indazol-6-yl]carbonyl}-beta-alaninate]",585
4,"O=C(NC1COC1)c1ccc2c(-c3ccccc3Cl)nn(-c3ccc(F)cc3)c2c1 [Example 21, 3-(2-chlorophenyl)-1-(4-fluorophenyl)-N-oxetan-3-yl-1H-indazole-6-carboxamide]",873
5,"O=C(NC1CCS(=O)(=O)CC1)c1ccc2c(-c3ccccc3Cl)nn(-c3ccc(F)cc3)c2c1 [Example 24, 3-(2-chlorophenyl)-N-(1,1-dioxidotetrahydro-2H-thiopyran-4-yl)-1-(4-fluorophenyl)-1H-indazole-6-carboxamide]",61
6,"CN(C)S(=O)(=O)CCNC(=O)c1ccc2c(-c3ccccc3Cl)nn(-c3ccc(F)cc3)c2c1 [Example 25, 3-(2-chlorophenyl)-N-[2-(dimethylsulfamoyl)ethyl]-1-(4-fluorophenyl)-1H-indazole-6-carboxamide]",558
7,"CCS(=O)(=O)CCNC(=O)c1ccc2c(-c3ccccc3Cl)nn(-c3ccc(F)cc3)c2c1 [Example 26, 3-(2-chlorophenyl)-N-[2-(ethylsulfonyl)ethyl]-1-(4-ftuorophenyl)-1H-indazole-6-carboxamide]",446
8,"O=C(NCc1ccccn1)c1ccc2c(-c3ccccc3Cl)nn(-c3ccc(F)cc3)c2c1 [Example 32, 3-(2-chlorophenyl)-1-(4-fluorophenyl)-N-(pyridin-2-ylmethyl)-1H-indazole-6-carboxamide]",495

# Other lines, results leading:
row,IC50 [nM],Compound
1,148,"NS(=O)(=O)CCNC(=O)c1ccc2c(-c3ccccc3Cl)nn(-c3ccc(F)cc3)c2c1 [Example 20, 3-(2-chlorophenyl)-1-(4-fluorophenyl)-N-(2-sulfamoylethyl)-1H-indazole-6-carboxamide]"
2,93,"CC(C)(NC(=O)c1ccc2c(-c3ccccc3Cl)nn(-c3ccc(F)cc3)c2c1)c1ccc(C(F)(F)F)nc1 [Example 28, 3-(2-chlorophenyl)-1-(4-fluorophenyl)-N-{1-methyl-1-[6-(trifluoromethyl)pyridin-3-yl]ethyl}-1H-indazole-6-carboxamide]"
3,48,"O=C(N[C@@H](CO)c1ccc(C(F)(F)F)nc1)c1ccc2c(-c3ccccc3Cl)nn(-c3ccc(F)cc3)c2c1 [Example 30, 3-(2-chlorophenyl)-1-(4-fluorophenyl)-N-{(1R)-2-hydroxy-1-[6-(trifluoromethyl)pyridin-3-yl]ethyl}-1H-indazole-6-carboxamide]"
4,320,"O=C(NCc1cccnc1)c1ccc2c(-c3ccccc3Cl)nn(-c3ccc(F)cc3)c2c1 [Example 31, 3-(2-chlorophenyl)-1-(4-fluorophenyl)-N-(pyridin-3-ylmethyl)-1H-indazole-6-carboxamide]"
5,654,"O=C(NCc1ccncc1)c1ccc2c(-c3ccccc3Cl)nn(-c3ccc(F)cc3)c2c1 [Example 33, 3-(2-chlorophenyl)-1-(4-fluorophenyl)-N-(pyridin-4-ylmethyl)-1H-indazole-6-carboxamide]"
6,75,"Cc1ncc([C@H](C)NC(=O)c2ccc3c(-c4ccccc4Cl)nn(-c4ccc(F)cc4)c3c2)cn1 [Example 34, 3-(2-chlorophenyl)-1-(4-fluorophenyl)-N-[(1S)-1-(2-methylpyrimidin-5-yl)ethyl]-1H-indazole-6-carboxamide]"
